The target of series [1] is mMC3R (Mus musculus, UniProt P33033). Kind of series: β-galactosidase cAMP reporter agonist assay, mMC3R. The settings on record: read-out: efficacy at the mMC3R compared to the maximal response of α-MSH.
The conditions of series [2]: rhesus monkey, in vivo; cited from earlier work.

Data on 2 molecules can be found in article PMC8552302 (Journal of medicinal chemistry, 2021).

mMC3R, sequence (P33033 whole entry): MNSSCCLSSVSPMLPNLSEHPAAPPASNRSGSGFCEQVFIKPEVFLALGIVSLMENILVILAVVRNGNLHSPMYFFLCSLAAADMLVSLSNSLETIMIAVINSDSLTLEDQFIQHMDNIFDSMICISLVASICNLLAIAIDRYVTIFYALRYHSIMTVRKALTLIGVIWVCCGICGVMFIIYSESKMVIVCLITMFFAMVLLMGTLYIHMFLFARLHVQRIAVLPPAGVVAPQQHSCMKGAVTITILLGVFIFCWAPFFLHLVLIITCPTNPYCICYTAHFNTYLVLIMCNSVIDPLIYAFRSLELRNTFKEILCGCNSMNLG

`O=C(NC(Cc1ccc(Cl)cc1)C(=O)N1CCC(Cn2cncn2)(C2CCCCC2)CC1)[C@H]1Cc2ccccc2CN1` (stereo in doubt) [THIQ, N-[(3R)-1,2,3,4-tetrahydroisoquinolinium-3-ylcarbonyl]-(1R)-1-(4-chlorobenzyl)2-[4-cyclohexyl-4-(1H-1,2,4-triazol-1-ylmethyl)piperidin-1-yl]-2-oxoethylamine]: in series [1], the Emax was 90 to 95%. Turning to “Ac-DArg-c[Cys-Glu-His-DPhe-Arg-Trp-Cys-NH2 [LY2112688]”, the “effect on heart rate and blood pressure” value in series [2] was “significantly increased heart rate and blood pressure”.
